Results: US10383859B2, “Benzo[d]thiazole derivative or salt thereof, and pharmaceutical composition including same” (Yuhan Corporation, priority 2016, dated 2019)

System: A549 cells
Test: Cell migration assay (24-well transwell, laminin)
Assay type: cell-based, human
Conditions: Homo sapiens, A549, 6 h, laminin 10 μg/mL in lower well, test compounds 0.39˜100 μM, migrated cells counted, read-out: Inhibitory activity against cell migration
Procedure: Cell migration was measured with a 24-well transwell having a polycarbonate membrane (8.0 μm pore size, Costar) at the bottom of the upper chamber. Each lower well was treated with laminin (10 μg/mL) and test compounds in predetermined concentrations (0.39˜100 μM) along with a serum-free RPMI1640 medium. A549 cells (Korean Cell Line Bank) were suspended in a serum-free RPMI1640 medium at a concentration of 1×10^6 cells/mL and then the test compounds were added thereto at the indicated concentrations. Each resulting solution (100 μL) was added to the upper chamber. The cells were cultured at 37° C. for 6 hours in a CO2 incubator. The upper chamber was taken out and then the cells were fixed with PBS containing 70% methyl alcohol for 10 minutes, followed by washing with PBS twice. The cells were stained with hematoxylin (Sigma) for 10 minutes and then washed with distilled water. The non-migrated cells were removed from the upper portion of the polycarbonate membrane with a cotton swab. The membranes were excised and separated from the chamber, and then mounted to a slide using a gel mount reagent (Biomeda, USA). The migrated cells (attached to the lower face of the membrane) were counted at three randomly selected sites under a microscope (×20). The cell counting was performed with the Image J program. From the counted cell numbers, each IC50 value was calculated by non-linear regression curve fit using the “GraphPad Prism” program.
The cells are pulled by laminin residing in the lower chamber and then passed through the polycarbonate membrane, so as to attach to the lower face of the membrane.

| SMILES | IC50 [nM] |
| --- | --- |
| CCC(c1ccc(C(=O)O)cc1)N(CCc1ccc(OC)c(C)c1)c1nc2cccc(F)c2s1 (stereo not shown) [Example 73, 4-(1-{(7-fluorobenzo[d]thiazol-2-yl)[2-(4-methoxy-3-methylphenyl)ethyl]amino}propyl)benzoic acid] | > 10000 |
| COc1ccc(CCN(Cc2ccc(C(=O)O)cc2)c2nc3ccc(F)cc3s2)cc1 [Example 92, 4-({(6-fluorobenzo[d]thiazol-2-yl)[2-(4-methoxyphenyl)ethyl]amino}methyl)benzoic acid] | < 1000 |
| CCC(c1ccc(C(=O)O)cc1)N(CCc1cc(C)c(OC)cc1C)c1nc2cccc(F)c2s1 (stereo not shown) [Example 72, 4-(1-{(7-fluorobenzo[d]thiazol-2-yl)[2-(4-methoxy-2,5-dimethylphenyl)ethyl]amino}propyl)benzoic acid] | > 10000 |
| COc1ccc(CCN(Cc2ccc(C(=O)O)cc2)c2nc3ccc(C(=O)O)cc3s2)cc1 [Example 117, 2-{(4-carboxybenzyl)[2-(4-methoxyphenyl)ethyl]amino}benzo[d]thiazole-6-carboxylic acid] | > 10000 |
| COc1ccc(CCN(Cc2ccc(C(=O)O)cc2)c2nc3cccc(Cl)c3s2)cc1 [Example 83, 4-({(7-chloro-benzo[d]thiazol-2-yl)[2-(4-methoxyphenyl)ethyl]amino}methyl)benzoic acid] | < 1000 |
| COc1ccc(CCN(c2nc3cccc(F)c3s2)C(C)c2ccc(C(=O)O)cc2)c(F)c1F (stereo not shown) [Example 60, 4-(1-{[2-(2,3-difluoro-4-methoxyphenyl)ethyl](7-fluorobenzo[d]thiazol-2-yl)amino}ethyl)benzoic acid] | < 1000 |
| O=C(O)c1ccc(CN(CCc2ccc(OCC3CC3)cc2)c2nc3cccc(F)c3s2)cc1 [Example 19, 4-{[[2-(4-cyclopropylmethoxyphenyl)ethyl](7-fluorobenzo[d]thiazol-2-yl)amino]methyl}benzoic acid] | < 1000 |
| CCC(C)Oc1ccc(CCN(Cc2ccc(C(=O)O)cc2)c2nc3cccc(F)c3s2)cc1 (stereo not shown) [Example 30, 4-{[[2-(4-sec-butoxyphenyl)ethyl](7-fluorobenzo[d]thiazol-2-yl)amino]methyl}benzoic acid] | > 10000 |
| CC(c1ccc(C(=O)O)cc1)N(CCc1cccc(F)c1F)c1nc2cccc(F)c2s1 (stereo not shown) [Example 57, 4-(1-{[2-(2,3-difluorophenyl)ethyl](7-fluorobenzo[d]thiazol-2-yl)amino}ethyl)benzoic acid] | > 10000 |
| COc1ccc(CCN(Cc2ccc(C(=O)O)cc2)c2nc3cccc(F)c3s2)cc1C [Example 49, 4-({(7-fluorobenzo[d]thiazol-2-yl)[2-(4-methoxy-3-methylphenyl)ethyl]amino}methyl)benzoic acid] | < 1000 |
| COc1ccc(CCN(c2nc3cc(F)c(F)c(F)c3s2)C(C)c2ccc(C(=O)O)cc2)cc1 (stereo not shown) [Example 101, 4-(1-{[2-(4-methoxyphenyl)ethyl](5,6,7-trifluorobenzo[d]thiazol-2-yl)amino}ethyl)benzoic acid] | > 10000 |
| CCOc1ccc(CCN(Cc2ccc(C(=O)O)cc2)c2nc3cccc(F)c3s2)cc1 [Example 9, 4-{[[2-(4-ethoxyphenyl)ethyl](7-fluorobenzo[d]thiazol-2-yl)amino]methyl}benzoic acid] | < 1000 |
| COc1ccc(CCN(c2nc3cc(F)c(F)cc3s2)C(C)c2ccc(C(=O)O)cc2)cc1 (stereo not shown) [Example 100, 4-(1-{(5,6-difluorobenzo[d]thiazol-2-yl)[2-(4-methoxyphenyl)ethyl]amino}ethyl)benzoic acid] | > 10000 |
| COc1ccc(CCN(c2nc3ccc(Br)cc3s2)C(C)c2ccc(C(=O)O)cc2)cc1 (stereo not shown) [Example 116, 4-(1-{(6-bromo-benzo[d]thiazol-2-yl)[2-(4-methoxyphenyl)ethyl]amino}ethyl)benzoic acid] | > 10000 |
| COc1ccc(CCN(Cc2ccc(C(=O)O)cc2Cl)c2nc3cccc(F)c3s2)cc1 [Example 78, 3-chloro-4-({(7-fluorobenzo[d]thiazol-2-yl)[2-(4-methoxyphenyl)ethyl]amino}methyl)benzoic acid] | < 1000 |
| COc1ccc(CCN(c2nc3cccc(F)c3s2)C(C)c2ccc(C(=O)O)cc2)c(C)c1 (stereo not shown) [Example 66, 4-(1-{(7-fluorobenzo[d]thiazol-2-yl)[2-(4-methoxy-2-methylphenyl)ethyl]amino}ethyl)benzoic acid] | < 1000 |
| COc1ccc(CCN(Cc2ccc(C(=O)O)cc2)c2nc3ccc(N)cc3s2)cc1 [Example 81, 4-({(6-amino-benzo[d]thiazol-2-yl)[2-(4-methoxyphenyl)ethyl]amino}methyl)benzoic acid] | < 1000 |

| SMILES | IC50 [nM] |
| --- | --- |
| CCC(c1ccc(C(=O)O)cc1)N(CCc1ccc(OC)c(F)c1F)c1nc2cccc(F)c2s1 (stereo not shown) [Example 68, 4-(1-{[2-(2,3-difluoro-4-methoxyphenyl)ethyl](7-fluorobenzo[d]thiazol-2-yl)amino}propyl)benzoic acid] | < 1000 |
| CCC(c1ccc(C(=O)O)cc1)N(CCc1ccc(OC)cc1C)c1nc2cccc(F)c2s1 (stereo not shown) [Example 74, 4-(1-{(7-fluorobenzo[d]thiazol-2-yl)[2-(4-methoxy-2-methylphenyl)ethyl]amino}propyl)benzoic acid] | > 10000 |
| COc1ccc(CCN(Cc2ccc(C(=O)O)cc2)c2nc3cccc(F)c3s2)cc1F [Example 28, 4-({(7-fluorobenzo[d]thiazol-2-yl)[2-(3-fluoro-4-methoxyphenyl)ethyl]amino}methyl)benzoic acid] | < 1000 |
| COc1ccc(CCN(c2nc3cc(Cl)ccc3s2)C(C)c2ccc(C(=O)O)cc2)cc1 (stereo not shown) [Example 107, 4-(1-{(5-chloro-benzo[d]thiazol-2-yl)[2-(4-methoxyphenyl)ethyl]amino}ethyl)benzoic acid] | > 10000 |
| COc1cc(C)c(CCN(c2nc3cccc(F)c3s2)C(C)c2ccc(C(=O)O)cc2)cc1C (stereo not shown) [Example 64, 4-(1-{(7-fluorobenzo[d]thiazol-2-yl)[2-(4-methoxy-2,5-dimethylphenyl)ethyl]amino}ethyl)benzoic acid] | < 1000 |
| COc1ccc(CCN(Cc2ccc(C(=O)O)cc2)c2nc3cccc([N+](=O)[O-])c3s2)cc1 [Example 80, 4-({[2-(4-methoxyphenyl)ethyl](7-nitro-benzo[d]thiazol-2-yl)amino}methyl)benzoic acid] | < 1000 |
| COc1ccc(CCN(c2nc3cc(F)cc(F)c3s2)C(C)c2ccc(C(=O)O)cc2)cc1F (stereo not shown) [Example 122, 4-(1-{(5,7-difluorobenzo[d]thiazol-2-yl)[2-(3-fluoro-4-methoxyphenyl)ethyl]amino}ethyl)benzoic acid] | < 1000 |
| CC(C)c1ccc(CCN(Cc2ccc(C(=O)O)cc2)c2nc3cccc(F)c3s2)cc1 [Example 33, 4-{[(7-fluorobenzo[d]thiazol-2-yl){2-[4-(propan-2-yl)phenyl]ethyl}amino]methyl}benzoic acid] | > 10000 |
| COc1ccc(CCN(Cc2ccc(C(=O)O)cc2)c2nc3cc(F)c(F)c(F)c3s2)cc1 [Example 87, 4-{[[2-(4-methoxyphenyl)ethyl](5,6,7-trifluorobenzo[d]thiazol-2-yl)amino]methyl}benzoic acid] | < 1000 |
| COc1ccc(CCN(Cc2ccc(C(=O)O)cc2)c2nc3ccc(C)c(F)c3s2)cc1 [Example 94, 4-({(7-fluoro-6-methyl-benzo[d]thiazol-2-yl)[2-(4-methoxyphenyl)ethyl]amino}methyl)benzoic acid] | < 1000 |
| COc1cc(F)c(CCN(Cc2ccc(C(=O)O)cc2)c2nc3cccc(F)c3s2)cc1F [Example 45, 4-({[2-(2,5-difluoro-4-methoxyphenyl)ethyl](7-fluorobenzo[d]thiazol-2-yl)amino}methyl)benzoic acid] | < 1000 |
| COc1ccc(CCN(c2nc3cccc(C(F)(F)F)c3s2)C(C)c2ccc(C(=O)O)cc2)cc1 (stereo not shown) [Example 106, 4-(1-{[2-(4-methoxyphenyl)ethyl][7-(trifluoromethyl)-benzo[d]thiazol-2-yl]amino}ethyl)benzoic acid] | > 10000 |
| COc1ccc(CCN(Cc2ccc(C(=O)O)cc2)c2nc3cccc(C(F)(F)F)c3s2)cc1 [Example 89, 4-{[[2-(4-methoxyphenyl)ethyl](7-trifluoromethyl-benzo[d]thiazol-2-yl)amino]methyl}benzoic acid] | < 1000 |
| COc1ccc(CCN(c2nc3cc(Br)ccc3s2)C(C)c2ccc(C(=O)O)cc2)cc1 (stereo not shown) [Example 103, 4-(1-{(5-bromo-benzo[d]thiazol-2-yl)[2-(4-methoxyphenyl)ethyl]amino}ethyl)benzoic acid] | > 10000 |
| COc1ccc(CCN(c2nc3cccc(F)c3s2)C(C)c2ccc(C(=O)O)cc2)cc1Br (stereo not shown) [Example 55, 4-(1-{[2-(3-bromo-4-methoxyphenyl)ethyl](7-fluorobenzo[d]thiazol-2-yl)amino}ethyl)benzoic acid] | > 10000 |
| COc1ccc(CCN(Cc2ccc(C(=O)O)cc2)c2nc3cc(C(F)(F)F)ccc3s2)cc1 [Example 120, 4-({[2-(4-methoxyphenyl)ethyl][5-(trifluoromethyl)benzo[d]thiazol-2-yl]amino}methyl)benzoic acid] | < 1000 |
| COc1ccc(CCN(Cc2ccc(C(=O)O)cc2)c2nc3cc(F)c(F)cc3s2)cc1 [Example 86, 4-({(5,6-difluorobenzo[d]thiazol-2-yl)[2-(4-methoxyphenyl)ethyl]amino}methyl)benzoic acid] | < 1000 |
